Measurements reported in patent publication US12421228B2 (Mirati Therapeutics, Inc., priority 2019, dated 2025).

Columns and labels:
[1] = target: purified human, His-tagged PRC2 complex (Homo sapiens (Human), UniProt O75530); assay: Hot Spot HMT assay, inhibition of PRC2 enzymatic activity; type: biochemical; conditions: 10 nM PRC2 complex, 0.05 mg/ml core histone H3, 1 μM 3H-SAM, 1 hr at 30° C.; read-out: IC50, Inhibition of PRC2-mediated Enzymatic Activity
Method: Ten-point dose-response curves for compounds of the present invention were determined using a Hot Spot HMT assay (Reaction Biology Corp; see Horiuchi et al., Assay Drug Dev Technol. (2013) 4: 227-236 doi: 10.1089/adt.2012.480). The assay uses purified human, His-tagged PRC2 complex, including N-terminal His-tagged EZH2 enzyme, N-terminal Flag-tagged embryonic ectoderm development protein (EED), N-terminal His-tagged suppressor of zeste 12 (SUZ12), N-terminal His-tagged AEBP2, and N-terminal His-tagged RbAp48. In this assay, the transfer of the tritiated methyl group from radiolabeled S-adenosyl methionine (SAM) to purified core histone protein by EZH2 is quantitated after filtration to determine the activity of the core PRC2 complex in the presence and absence of compound.
Briefly, compounds of the present invention were solubilized in DMSO and a series of 10, three-fold serial dilutions were made for each compound in 15% DMSO. The initial starting concentration for the serial dilutions of each compound was 1.0 μM. Control samples lacking compound, EZH2 enzyme or various reaction components also were prepared and processed in parallel with compound test samples. SAH (S-(5-adenosyl)-L-homocysteine) was used as a positive control for assay validation.
An aliquot of each serial dilution of test compound was added to deep 384 well plate using Acoustic Technology instrument (Echo 550, LabCyte) containing reaction buffer (50 mM Tris-HCl (pH 8)), 0.01% Brij35, 1 mM EDTA, 1 mM DTT, 1 mM PMSF and 1% DMSO), 10 nM purified PRC2 complex and 0.05 mg/ml core histone H3 in a 5 μl volume. The reaction was mixed gently and then pre-incubated for 20 min at 30° C. The enzymatic reaction was initiated by adding 1 μM S-Adenosyl-L-[methyl-^3H]methionine and incubated for 1 hr at 30° C. After 1 hr, the reaction product was detected using a filter binding method and the amount of tritiated H3 core histone was quantitated using a scintillation counter. The IC50 value for each compound was determined from each 10-point dose-response curve using GraphPad Prism software and the results for compounds of present invention, including compounds of Formula (I) and Formula (II) are shown in Table 6. Key: A=<100 nM; B=>100 nM−<250 nM; and C=>250 nM.

[2] = test system: PRC2-mediated histone H3 methylation in Pfeiffer cells (EZH2 A677G); assay: Tri-Methyl Histone H3 (Lys 27) sandwich ELISA in Pfeiffer cells; type: cell-based; conditions: Homo sapiens, 96 hours incubation, H3K27me3 ELISA, read-out: IC50 (nM), Inhibition of EZH2-mediated Histone H3 Trimethylation
Text: The Pfeiffer cell line was established from a […] from a patient having metastatic diffuse large B-cell lymphoma (DLBCL). This cell line expresses a mutant form of the EZH2 enzyme (A677G) that results in enhanced EZH2 activity leading to increased methylation of histone H3 Lys27. Increased trimethylation of histone H3 Lys27 is believed to be implicated in tumorgenesis and poor clinical prognosis in lymphomas (McCabe et al., (2012) Nature 492:108-112).
Inhibition of PRC2-mediated histone H3 methylation by compounds of Formula (I) was measured by ELISA using a Tri-Methyl Histone H3 (Lys 27) Sandwich ELISA Kit (Cell Signaling Tech #7866C) in accordance with the manufacturer's instructions. Briefly, Pfeiffer cells were cultured in RPMI medium supplemented with 10% fetal bovine serum and 1% penicillin and 1% streptomycin in 96 well culture plates at 37° C. to a density of 8000 cells/90 μl/well and the cells were harvested. A series of 3-fold serial dilutions of each test compound of Formula (I) were prepared in RPMI medium and added to the cells at final concentrations ranging from […] to 0.15 nM. The plates were incubated at 37° C. for 96 hours.
After incubation, the cells were pelleted by centrifugation in a pre-cooled 4° C. rotor at 1,100 rpm for 10 min and the supernatant was removed by aspiration. The cell pellet was resuspended in 55 μl of Lysis Buffer (0.4M HCl) and incubated on ice with periodic shaking for 30 minutes. The lysed cells were subjected to centrifugation at 4,200 rpm for 10 min at 4° C. and the supernatant containing acid-soluble proteins was collected and the remainder discarded. The acid-soluble proteins were brought to a neutral pH by the addition of 20 μl of Neutralization Buffer (1 M Sodium phosphate, dibasic (pH 12.5), 2.5 mM DTT and 1 mM PMSF) and the neutralized lysates were analyzed by ELISA.
A 65 μl aliquot of each cell lysate was added to a well of a microwell strip, the microwells were sealed using tape and incubated either at 37° C. for two hours or at 4° C. overnight. After incubation, the tape was removed at the microwells were washed four times using 200 μl of 1× Wash Buffer. To each washed microwell, a 100 μl aliquot of an anti-trimethyl histone H3 Lys27 Detection Antibody solution was added and the microwells were incubated at 37° C. for one hour. The Detection Antibody solution was removed by aspiration and the wells were washed four times each using 200 μl of 1× Wash Buffer.
A 100 μl aliquot of an HRP-linked secondary antibody was added to each well, the wells were sealed with tape and incubated at 37° C. for 30 min. The HRP-linked secondary antibody solution was removed by aspiration and the wells were washed four times using 200 μl of 1× Wash Buffer. A 100 μl aliquot of a TMB substrate was added to each well, the wells were sealed with tape and incubated at 37° C. for 10 min or 25° C. for 30 min. The reaction was stopped by the addition of 100 μl aliquot of a STOP solution and the plate was shaken briefly. The degree of histone H3 trimethylation was determined using a spectrophotometric readout by measuring the absorbance at 450 nm and then calculating the amount of trimethylated histone H3. A=≤100 nM; B=>100 nM−≤500 nM; C=>500 nM and N.D.=not determined.

[3] = test system: Karpas 422 cells (EZH2 Y641N); assay: Karpas 422 cell viability (Cell Titre Glo); type: cell-based; conditions: Homo sapiens, CTG viability, Day 4, Day 7 or Day 11 (time point not given), read-out: IC50 (nM), Inhibiting Proliferation of Cells Expressing an Activating Mutant Form of EZH2
Method: Karpas 422 cell line is a human B cell non-Hodgkin's lymphoma cell line established from a patient having DLBCL. This EZH2 heterozygotic cell line expresses a mutant form of EZH2 enzyme (Y641N) that increases histone H3 methylation and this mutation has been implicated in the tumorgenesis of lymphomas, such as DLBCL.
Karpas 422 cells (PHE cat no., 06101702) were cultured in RPMI medium supplemented with 20% fetal bovine serum and 1% penicillin/1% streptomycin and plated at a density of 1000 cells/90 μl/well in 96 well white assay plates. A dose response curve for compounds of the present invention was determined by adding a 10 μl aliquot of stock solutions of varying concentrations of compounds to the same medium in each well, over a concentration range of 10 μM using 3-fold dilutions to a final concentration of 1.5 nM. The plates were incubated at 37° C. for predetermined time periods, Day 4, Day 7, or Day 11, and the viability of the cells was measured using a CTG assay kit (Cell Titre Glo; Promega cat. no G7573) on Day 4 and Day 7 in accordance with the manufacturer's instructions.
For the viability assay for the Day 11 plates, the plates were subjected to centrifugation at 1100 rpm for five minutes on Day 7 and the supernatant was removed by aspiration. The cells were resuspended in 90 μl aliquot of the appropriate growth medium lacking the compound followed by addition of 10 μl of a 10× stock of the same compound at the same concentration. The viability of the Day 11 cells was measured using the CTG assay kit described above in accordance with the manufacturer's instructions. The IC50 values for each compound at each predetermined time point were calculated using Graph pad PRISM software and the results are shown in Table 8. A=≤250 nM; B=[…]−≤500 nM; C=>500 nM and N.D.=not determined.

purified human, His-tagged PRC2 complex, sequence (Q15910 whole entry): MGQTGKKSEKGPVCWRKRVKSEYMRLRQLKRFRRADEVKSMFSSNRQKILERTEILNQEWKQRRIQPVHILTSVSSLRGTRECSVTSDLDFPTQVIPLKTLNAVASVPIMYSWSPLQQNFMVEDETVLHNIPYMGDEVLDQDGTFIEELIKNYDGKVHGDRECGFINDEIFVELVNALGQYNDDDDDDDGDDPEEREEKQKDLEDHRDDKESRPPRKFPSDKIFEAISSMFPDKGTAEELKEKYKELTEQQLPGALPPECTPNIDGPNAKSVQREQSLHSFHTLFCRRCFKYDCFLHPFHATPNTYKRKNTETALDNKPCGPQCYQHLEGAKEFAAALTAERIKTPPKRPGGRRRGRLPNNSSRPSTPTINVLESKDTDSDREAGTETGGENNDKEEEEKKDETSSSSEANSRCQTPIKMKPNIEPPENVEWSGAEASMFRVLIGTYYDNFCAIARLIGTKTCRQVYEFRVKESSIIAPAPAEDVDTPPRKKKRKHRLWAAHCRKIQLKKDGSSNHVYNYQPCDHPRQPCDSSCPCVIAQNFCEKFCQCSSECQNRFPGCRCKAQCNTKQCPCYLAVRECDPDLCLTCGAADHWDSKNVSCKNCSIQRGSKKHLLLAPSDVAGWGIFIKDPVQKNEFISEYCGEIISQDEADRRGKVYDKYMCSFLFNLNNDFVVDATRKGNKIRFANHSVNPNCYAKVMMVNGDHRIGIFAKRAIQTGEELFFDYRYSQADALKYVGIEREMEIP
purified human, His-tagged PRC2 complex, sequence (O75530 whole entry): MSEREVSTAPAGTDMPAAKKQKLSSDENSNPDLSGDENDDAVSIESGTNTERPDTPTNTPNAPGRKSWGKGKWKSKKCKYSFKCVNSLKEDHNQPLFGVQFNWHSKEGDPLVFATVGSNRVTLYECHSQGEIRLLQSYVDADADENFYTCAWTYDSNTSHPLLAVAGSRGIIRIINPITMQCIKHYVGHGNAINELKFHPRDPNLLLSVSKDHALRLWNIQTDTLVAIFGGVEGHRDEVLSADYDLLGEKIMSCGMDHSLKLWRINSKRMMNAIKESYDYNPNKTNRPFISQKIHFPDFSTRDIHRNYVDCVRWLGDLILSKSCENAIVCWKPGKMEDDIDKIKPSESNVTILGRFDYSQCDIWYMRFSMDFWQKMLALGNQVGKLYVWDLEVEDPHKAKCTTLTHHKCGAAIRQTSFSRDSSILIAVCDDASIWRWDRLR
purified human, His-tagged PRC2 complex, sequence (Q15022 whole entry partner): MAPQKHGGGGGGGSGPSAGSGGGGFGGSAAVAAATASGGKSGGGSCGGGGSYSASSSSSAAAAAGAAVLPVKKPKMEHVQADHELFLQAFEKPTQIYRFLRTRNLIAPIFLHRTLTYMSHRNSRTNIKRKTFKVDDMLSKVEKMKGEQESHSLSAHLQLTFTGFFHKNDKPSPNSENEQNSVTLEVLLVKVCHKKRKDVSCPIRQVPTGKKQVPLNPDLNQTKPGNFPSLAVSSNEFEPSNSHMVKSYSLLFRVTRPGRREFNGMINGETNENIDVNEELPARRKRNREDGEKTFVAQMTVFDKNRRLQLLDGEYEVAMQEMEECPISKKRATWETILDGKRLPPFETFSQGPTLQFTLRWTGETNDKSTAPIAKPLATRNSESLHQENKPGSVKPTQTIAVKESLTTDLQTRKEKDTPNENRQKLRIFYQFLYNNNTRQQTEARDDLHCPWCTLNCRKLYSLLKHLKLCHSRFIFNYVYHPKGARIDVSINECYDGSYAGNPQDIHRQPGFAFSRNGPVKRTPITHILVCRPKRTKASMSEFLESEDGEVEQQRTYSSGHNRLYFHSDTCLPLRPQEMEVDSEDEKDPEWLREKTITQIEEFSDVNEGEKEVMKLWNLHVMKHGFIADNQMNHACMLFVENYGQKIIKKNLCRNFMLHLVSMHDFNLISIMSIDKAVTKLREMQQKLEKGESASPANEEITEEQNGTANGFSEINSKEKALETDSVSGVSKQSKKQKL
purified human, His-tagged PRC2 complex, sequence (Q6ZN18 whole entry partner): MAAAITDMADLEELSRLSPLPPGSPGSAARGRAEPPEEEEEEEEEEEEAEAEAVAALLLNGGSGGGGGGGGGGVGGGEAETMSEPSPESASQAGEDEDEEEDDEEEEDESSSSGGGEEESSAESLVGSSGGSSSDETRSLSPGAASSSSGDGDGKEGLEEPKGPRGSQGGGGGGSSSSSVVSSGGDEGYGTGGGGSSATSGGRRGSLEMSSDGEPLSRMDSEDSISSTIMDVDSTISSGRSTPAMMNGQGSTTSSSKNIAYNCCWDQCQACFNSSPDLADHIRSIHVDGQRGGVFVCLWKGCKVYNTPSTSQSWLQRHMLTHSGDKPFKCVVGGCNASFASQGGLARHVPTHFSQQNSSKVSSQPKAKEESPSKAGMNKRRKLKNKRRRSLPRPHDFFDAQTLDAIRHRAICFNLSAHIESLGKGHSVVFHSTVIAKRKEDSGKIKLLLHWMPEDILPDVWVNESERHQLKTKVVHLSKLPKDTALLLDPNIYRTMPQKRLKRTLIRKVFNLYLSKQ
purified human, His-tagged PRC2 complex, sequence (Q09028 whole entry partner): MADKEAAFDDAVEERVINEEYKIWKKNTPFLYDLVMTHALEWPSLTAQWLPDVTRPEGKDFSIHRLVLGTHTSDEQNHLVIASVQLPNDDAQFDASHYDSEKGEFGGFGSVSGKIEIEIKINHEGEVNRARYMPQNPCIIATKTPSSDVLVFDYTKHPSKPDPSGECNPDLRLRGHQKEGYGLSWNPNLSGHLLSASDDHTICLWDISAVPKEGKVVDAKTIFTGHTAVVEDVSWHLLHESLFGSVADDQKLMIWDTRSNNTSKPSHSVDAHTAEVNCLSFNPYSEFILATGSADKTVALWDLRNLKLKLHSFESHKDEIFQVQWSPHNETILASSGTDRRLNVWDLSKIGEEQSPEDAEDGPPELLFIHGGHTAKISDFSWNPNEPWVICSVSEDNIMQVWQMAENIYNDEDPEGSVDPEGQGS

IC50 [1] | IC50 [2] | IC50 [3] | Structure (SMILES)
< 0.1 µM | 100 to 500 nM | ≤ 250 nM | CSc1ncc2c(NCc3c(F)ccc4c3CCO4)ncc(-c3cc(C)nn3C)c2n1 [Example 27, 8-(1,3-dimethyl-1H-pyrazol-5-yl)-N-((5-fluoro-2,3-dihydrobenzofuran-4-yl)methyl)-2-(methylthio)pyrido[4,3-d]pyrimidin-5-amine]
> 0.25 µM | 100 to 500 nM | ≤ 250 nM | CN(C)CCn1nccc1-c1cnc(NCc2c(F)ccc3c2CCO3)c2cnncc12 [Example 18, 8-(1-(2-(dimethylamino)ethyl)-1H-pyrazol-5-yl)-N-((5-fluoro-2,3-dihydrobenzofuran-4-yl)methyl)pyrido[3,4-d]pyridazin-5-amine]
< 0.1 µM | ≤ 100 nM | ≤ 250 nM | CNS(=O)(=O)c1ccc(-c2cnc(NCc3c(F)ccc4c3CCO4)c3cnncc23)cc1 [Example 7]
> 0.25 µM | > 500 nM | > 500 nM | Cc1cc(-c2cnc(NCc3c(F)ccc4c3CCO4)c3nc[nH]c(=O)c23)n(C)n1 [Example 58, 5-(1,3-dimethyl-1H-pyrazol-5-yl)-8-(((5-fluoro-2,3-dihydrobenzofuran-4-yl)methyl)amino)pyrido[3,4-d]pyrimidin-4(3H)-one]
< 0.1 µM | ≤ 100 nM | ≤ 250 nM | CCNCc1ccc(-c2cnc(NCc3c(F)ccc4c3CCO4)c3cnncc23)c(C)c1 [Example 20, 8-(4-((ethylamino)methyl)-2-methylphenyl)-N-((5-fluoro-2,3-dihydrobenzofuran-4-yl)methyl)pyrido[3,4-d]pyridazin-5-amine]
< 0.1 µM | ≤ 100 nM | ≤ 250 nM | Fc1ccc2c(c1CNc1ncc(-c3ccc(CN4CCCC4)cc3)c3cnncc13)CCO2 [Example 2]
> 0.25 µM | > 500 nM | > 500 nM | Cn1nncc1-c1cnc(NCc2c(F)ccc3c2CCO3)c2c[nH]c(=O)cc12 [Example 39]
> 0.25 µM | ≤ 100 nM | ≤ 250 nM | Cc1c(-c2cnc(NCc3c(F)ccc4c3CCO4)c3cnncc23)ccc(CN(C)C)c1F [Example 5]
< 0.1 µM | ≤ 100 nM | ≤ 250 nM | Cc1cc(CN(C)C)ccc1-c1cnc(NCc2c(F)ccc3c2CCO3)c2cncnc12 [Example 24]
< 0.1 µM | ≤ 100 nM | ≤ 250 nM | CN1CCc2cc(-c3cnc(NCc4c(F)ccc5c4CCO5)c4cnncc34)ccc2C1 [Example 17, N-((5-fluoro-2,3-dihydrobenzofuran-4-yl)methyl)-8-(2-methyl-1,2,3,4-tetrahydroisoquinolin-6-yl)pyrido[3,4-d]pyridazin-5-amine]
< 0.1 µM | ≤ 100 nM | ≤ 250 nM | Cc1cc(-c2cnc(NCc3c(F)ccc4c3CCO4)c3cncnc23)n(C)n1 [Example 22, 8-(1,3-dimethyl-1H-pyrazol-5-yl)-N-((5-fluoro-2,3-dihydrobenzofuran-4-yl)methyl)pyrido[4,3-d]pyrimidin-5-amine]
0.1 to 0.25 µM | 100 to 500 nM | ≤ 250 nM | Cc1cc(S(C)(=O)=O)ccc1-c1cnc(NCc2c(F)ccc3c2CCO3)c2c[nH]c(=O)cc12 [Example 40]
> 0.25 µM | > 500 nM | ≤ 250 nM | Cc1cc(-c2cnc(NCc3c(F)ccc4c3CCO4)c3cc[nH]c(=O)c23)n(C)n1 [Example 55, 8-(1,3-dimethyl-1H-pyrazol-5-yl)-5-(((5-fluoro-2,3-dihydrobenzofuran-4-yl)methyl)amino)-2,6-naphthyridin-1(2H)-one]
< 0.1 µM | 100 to 500 nM | 250 to 500 nM | Cc1cc(-c2cnc(NCc3c(F)ccc4c3CCO4)c3cnccc23)n(C)n1 [Example 29, 4-(1,3-dimethyl-1H-pyrazol-5-yl)-N-((5-fluoro-2,3-dihydrobenzofuran-4-yl)methyl)-2,7-naphthyridin-1-amine]
0.1 to 0.25 µM | 100 to 500 nM | ≤ 250 nM | COCCOc1cc2c(-c3cc(C)nn3C)cnc(NCc3c(F)ccc4c3CCO4)c2cn1 [Example 45]
< 0.1 µM | ≤ 100 nM | ≤ 250 nM | CN(C)C(=O)c1cc(-c2cnc(NCc3c(F)ccc4c3CCO4)c3cnncc23)n(C)n1 [Example 15, 5-(5-(((5-fluoro-2,3-dihydrobenzofuran-4-yl)methyl)amino)pyrido[3,4-d]pyridazin-8-yl)-N,N,1-trimethyl-1H-pyrazole-3-carboxamide]
> 0.25 µM | 100 to 500 nM | ≤ 250 nM | Cc1cc(-c2cnc(NCc3c(F)ccc4c3CCO4)c3cccnc23)n(C)n1 [Example 51, 8-(1,3-dimethyl-1H-pyrazol-5-yl)-N-((5-fluoro-2,3-dihydrobenzofuran-4-yl)methyl)-1,6-naphthyridin-5-amine]
